{"source": "patent US20240307296A1", "about": "“SUBCUTANEOUS BIODEGRADABLE NALTREXONE IMPLANT AND ACCOMPANYING BEHAVIORAL PROGRAM FOR WEIGHT LOSS IN A PATIENT” (Biocorrx, priority 2017, published 2024)", "origin": "cited, not measured here", "system": "fasting insulin levels", "conditions": "in vivo", "data": [{"smiles": "O=C1CC[C@@]2(O)[C@H]3Cc4ccc(O)c5c4[C@@]2(CCN3CC2CC2)[C@H]1O5", "note": "[Naltrexone, N-Cyclopropylmethylnoroxymorphone]", "values": [{"measurement": "Lowering of fasting insulin levels", "value": "up to 40%"}]}]}
